Laboratory results as given in patent US11591341B2 (ALIGOS THERAPEUTICS, INC., priority 2019, dated 2023).
pEC50: −log10 of the molar value.

Tested on: HBV
Assay: HBV-DNA Antiviral Assay Using HepG2.117 Cells (intracellular HBV DNA by qPCR)
Format: cell-based, hepatitis B virus (genotype D)
Settings: Hepatitis B virus, HepG2.117
Experimental: The following assay procedure describes the HBV antiviral assay, using HepG2.117 cells, which carry a stably integrated genotype D HBV genome under the control of a Tet-off promoter, and intracellular HBV DNA quantification as endpoint. Cell viability is assessed in parallel by measuring the intracellular ATP content using ATPlite (Perkin Elmer).
On day 0, HepG2.117 cells (which are maintained in routine cell culture with doxycycline present in the medium at a final concentration of 1 μg/mL) were seeded in 96-well plates (white with clear bottom) at a density of 2.0×10^4 cells/well (0.1 mL/well) in medium without doxycycline to induce pgRNA transcription and subsequent formation of HBV particles. The cells were incubated at 37° C. and 5% CO2.
On day 1, medium was removed from each well, the test articles were diluted in culture medium without doxcycyline and 100 μL was added to cell culture wells (9 concentrations, 4-fold dilution). For each plate, 6 untreated (merely DMSO) wells were included. The final concentration of DMSO in the culture medium was 2%. Each plate was prepared in duplicate (one for HBV DNA extraction, one for ATPlite measurement). The cells were incubated at 37° C. and 5% CO2 for 3 days.
On day 4, cell viability was assessed using ATPlite and cell lysates were prepared for HBV DNA extraction and subsequent quantification by qPCR.
Medium was removed from each well and 100 μL of 0.33% NP-40 in H2O was added to each well. Plates were sealed, incubated at 4° C. for 5 mins, vortexed extensively and centrifuged briefly. Next, 35 μL of lysate was added to 65 μL QuickExtract DNA Extraction Solution (Epicentre) in a PCR plate for each well. PCR plate was incubated at 65° C. for 6 mins, 98° C. for 2 mins and finally cooled to 4° C. HBV DNA was then quantified by qPCR with HBV-specific primers and probes as specified in Table 3 using the Bio-Rad SSOAdvanced Universal Probes Supermix on a CFX96 machine (Bio-Rad). The PCR cycle program consisted of 95° C. for 3 mins, followed by 40 cycles at 95° C. for 10 sec and 60° C. for 30 sec.
A DNA standard was prepared by dilution of an IDT gBlock corresponding to the amplicon with concentrations ranging from 10^2 to 10^8 copies/input (i.e. per 4 μL) and used to generate a standard curve by plotting Cq values vs. HBV DNA standard concentration. The quantity of HBV DNA in each sample was determined by interpolating from the standard curve.
Cell viability was calculated as follows: % Cell viability=(luminescence value of test sample)/(average luminescence value of 2% DMSO control)×100%. HBV DNA inhibition was calculated as follows: 100−(HBV DNA copy number of test sample)/(average HBV DNA copy number of 2% DMSO control)×100%. No normalization to entecavir was required due to the excellent dynamic window of this assay. The CC50, EC50 and EC90 values were determined by dose-response curves fitted by GraphPad Prism using “log (agonist) vs. response—Variable slope”.

| Structure (SMILES) | pEC50 |
| --- | --- |
| COc1ccc(-n2c(C(=O)NCc3ccccc3)c3n(c2=O)CC(C)N(C(=O)c2ccc(Br)c(Cl)c2)C3)cc1 (racemic) [Example 198, rac-(6R)-N-benzyl-7-(4-bromo-3-chloro-benzoyl)-2-(4-methoxyphenyl)-6-methyl-3-oxo-6,8-dihydro-5H-imidazo[1,5-a]pyrazine-1-carboxamide] | 5.30 to 6.30 |
| COc1ccc(-n2c(C(=O)NCc3ccccc3)c3n(c2=O)C[C@H](C)N(C(=O)c2ccc(Br)c(Cl)c2)C3)cc1 (racemic) [Example 199, rac-(6S)-N-benzyl-7-(4-bromo-3-chloro-benzoyl)-2-(4-methoxyphenyl)-6-methyl-3-oxo-6,8-dihydro-5H-imidazo[1,5-a]pyrazine-1-carboxamide] | 6.30 to 7.00 |
| COc1ccc(-n2c(C(=O)NC(C(N)=O)c3ccccc3)c3n(c2=O)CCN(C(=O)c2ccc(Br)c(Cl)c2)C3)cc1 (racemic) [Example 206, 7-(4-bromo-3-chloro-benzoyl)-2-(4-methoxyphenyl)-3-oxo-N-[rac-(1R)-2-amino-2-oxo-1-phenyl-ethyl]-6,8-dihydro-5H-imidazo[1,5-a]pyrazine-1-carboxamide] | < 5.30 |
| COc1ccc(-n2c(C(=O)N[C@H](C(N)=O)c3ccccc3)c3n(c2=O)CCN(C(=O)c2ccc(Br)c(Cl)c2)C3)cc1 (racemic) [Example 207, 7-(4-bromo-3-chloro-benzoyl)-2-(4-methoxyphenyl)-3-oxo-N-[rac-(1S)-2-amino-2-oxo-1-phenyl-ethyl]-6,8-dihydro-5H-imidazo[1,5-a]pyrazine-1-carboxamide] | < 5.30 |
| CC(C)Oc1ccc(-n2c(C(=O)NCc3ccccc3)c3n(c2=O)CCN([C@H](c2ccc(Br)c(Cl)c2)C(F)(F)F)C3)cc1 (racemic) [Example 240, N-benzyl-2-(4-isopropoxyphenyl)-3-oxo-7-[rac-(1R)-1-(4-bromo-3-chloro-phenyl)-2,2,2-trifluoro-ethyl]-6,8-dihydro-5H-imidazo[1,5-a]pyrazine-1-carboxamide] | < 5.30 |
| CC(C)Oc1ccc(-n2c(C(=O)NCc3ccccc3)c3n(c2=O)CCN(C(c2ccc(Br)c(Cl)c2)C(F)(F)F)C3)cc1 (racemic) [Example 241, N-benzyl-2-(4-isopropoxyphenyl)-3-oxo-7-[rac-(1S)-1-(4-bromo-3-chloro-phenyl)-2,2,2-trifluoro-ethyl]-6,8-dihydro-5H-imidazo[1,5-a]pyrazine-1-carboxamide] | < 5.30 |
| COC1CCC(n2c(C(=O)N[C@@H](C)c3ccccc3)c3n(c2=O)CCN(C(=O)c2ccc(Br)c(Cl)c2)C3)CC1 (mixture of isomers) [Example 247, 7-(4-bromo-3-chloro-benzoyl)-2-(4-methoxycyclohexyl)-3-oxo-N-[rac-(1S)-1-phenylethyl]-6,8-dihydro-5H-imidazo[1,5-a]pyrazine-1-carboxamide] | < 5.30 |
| COC1CCC(n2c(C(=O)N[C@H](C)c3ccccc3)c3n(c2=O)CCN(C(=O)c2ccc(Br)c(Cl)c2)C3)CC1 (mixture of isomers) [Example 254, 7-(4-bromo-3-chloro-benzoyl)-2-(4-methoxycyclohexyl)-3-oxo-N-[rac-(1R)-1-phenylethyl]-6,8-dihydro-5H-imidazo[1,5-a]pyrazine-1-carboxamide] | < 5.30 |
| COc1ccc(-n2c(C(=O)NCc3ccccc3)c3n(c2=O)C[C@H](C2CC2)N(C(=O)c2ccc(Br)c(Cl)c2)C3)cc1 (racemic) [Example 279, rac-(6S)-N-benzyl-7-(4-bromo-3-chloro-benzoyl)-6-cyclopropyl-2-(4-methoxyphenyl)-3-oxo-6,8-dihydro-5H-imidazo[1,5-a]pyrazine-1-carboxamide] | 6.30 to 7.00 |
| COc1ccc(-n2c(C(=O)NCc3ccccc3)c3n(c2=O)CC(C2CC2)N(C(=O)c2ccc(Br)c(Cl)c2)C3)cc1 (racemic) [Example 280, rac-(6R)-N-benzyl-7-(4-bromo-3-chloro-benzoyl)-6-cyclopropyl-2-(4-methoxyphenyl)-3-oxo-6,8-dihydro-5H-imidazo[1,5-a]pyrazine-1-carboxamide] | 6.30 to 7.00 |
| C[C@@H](NC(=O)c1c2n(c(=O)n1-c1ccc(OCC(F)(F)F)cc1)CCN(C(=O)c1ccc(Br)c(Cl)c1)C2)c1ccc(OC(F)(F)F)cc1F (racemic) [Example 292, 7-(4-bromo-3-chloro-benzoyl)-3-oxo-N-[rac-(1R)-1-[2-fluoro-4-(trifluoromethoxy)phenyl]ethyl]-2-[4-(2,2,2-trifluoroethoxy)phenyl]-6,8-dihydro-5H-imidazo[1,5-a]pyrazine-1-carboxamide] | 5.30 to 6.30 |
| CC(NC(=O)c1c2n(c(=O)n1-c1ccc(OCC(F)(F)F)cc1)CCN(C(=O)c1ccc(Br)c(Cl)c1)C2)c1ccc(OC(F)(F)F)cc1F (racemic) [Example 293, 7-(4-bromo-3-chloro-benzoyl)-3-oxo-N-[rac-(1S)-1-[2-fluoro-4-(trifluoromethoxy)phenyl]ethyl]-2-[4-(2,2,2-trifluoroethoxy)phenyl]-6,8-dihydro-5H-imidazo[1,5-a]pyrazine-1-carboxamide] | 5.30 to 6.30 |
| C[C@H](NC(=O)c1c2n(c(=O)n1-c1ccc(OCC(F)(F)F)cc1)CCN(C(=O)c1ccc(Br)c(Cl)c1)C2)c1ccc(C#N)cc1F (racemic) [Example 299, 7-(4-bromo-3-chloro-benzoyl)-3-oxo-N-[rac-(1R)-1-(4-cyano-2-fluoro-phenyl)ethyl]-2-[4-(2,2,2-trifluoroethoxy)phenyl]-6,8-dihydro-5H-imidazo[1,5-a]pyrazine-1-carboxamide] | 5.30 to 6.30 |
| CC1Cn2c(c(C(=O)NCc3ccccc3)n(-c3ccc(OC4CC4)cc3)c2=O)CN1C(=O)c1ccc(Br)c(Cl)c1 (racemic) [Example 301, rac-(6R)-N-benzyl-7-(4-bromo-3-chloro-benzoyl)-2-[4-(cyclopropoxy)phenyl]-6-methyl-3-oxo-6,8-dihydro-5H-imidazo[1,5-a]pyrazine-1-carboxamide] | 5.30 to 6.30 |
| C[C@H]1Cn2c(c(C(=O)NCc3ccccc3)n(-c3ccc(OC4CC4)cc3)c2=O)CN1C(=O)c1ccc(Br)c(Cl)c1 (racemic) [Example 302, rac-(6S)-N-benzyl-7-(4-bromo-3-chloro-benzoyl)-2-[4-(cyclopropoxy)phenyl]-6-methyl-3-oxo-6,8-dihydro-5H-imidazo[1,5-a]pyrazine-1-carboxamide] | 6.30 to 7.00 |
| C[C@@H](NC(=O)c1c2n(c(=O)n1-c1ccc(OC3CC3)cc1)CCN(C(=O)c1ccc(Br)c(Cl)c1)C2)c1ccc(OC(F)F)cc1F (racemic) [Example 313, 7-(4-bromo-3-chloro-benzoyl)-2-[4-(cyclopropoxy)phenyl]-3-oxo-N-[rac-(1R)-1-[4-(difluoromethoxy)-2-fluoro-phenyl]ethyl]-6,8-dihydro-5H-imidazo[1,5-a]pyrazine-1-carboxamide] | 6.30 to 7.00 |
| CC(NC(=O)c1c2n(c(=O)n1-c1ccc(OC3CC3)cc1)CCN(C(=O)c1ccc(Br)c(Cl)c1)C2)c1ccc(OC(F)F)cc1F (racemic) [Example 314, 7-(4-bromo-3-chloro-benzoyl)-2-[4-(cyclopropoxy)phenyl]-3-oxo-N-[rac-(1S)-1-[4-(difluoromethoxy)-2-fluoro-phenyl]ethyl]-6,8-dihydro-5H-imidazo[1,5-a]pyrazine-1-carboxamide] | 6.30 to 7.00 |
| CC1Cn2c(c(C(=O)N[C@H](C)c3ccccc3F)n(-c3ccc(OC4CC4)cc3)c2=O)CN1C(=O)c1ccc(Br)c(Cl)c1 (mixture of isomers) [Example 321, (6RS)-7-(4-bromo-3-chloro-benzoyl)-2-[4-(cyclopropoxy)phenyl]-N-[(1R)-1-(2-fluorophenyl)ethyl]-6-methyl-3-oxo-6,8-dihydro-5H-imidazo[1,5-a]pyrazine-1-carboxamide] | 5.30 to 6.30 |
| CC1Cn2c(c(C(=O)N[C@@H](C)c3ccccc3F)n(-c3ccc(OC4CC4)cc3)c2=O)CN1C(=O)c1ccc(Br)c(Cl)c1 (mixture of isomers) [Example 334, (6SR)-7-(4-bromo-3-chloro-benzoyl)-2-[4-(cyclopropoxy)phenyl]-N-[(1S)-1-(2-fluorophenyl)ethyl]-6-methyl-3-oxo-6,8-dihydro-5H-imidazo[1,5-a]pyrazine-1-carboxamide] | 6.30 to 7.00 |
